Each structure is given as a SMILES string. Numbered stars: 1 amine (or outer) side, 2 acyl side, 3 side chain; on linkers, the order of the positions; unused ones are H or OH. Bridge positions count the residues as written; N and C are the ends. Peptide text beside a SMILES is read from it. X1 = N[C@@H](CS[*:1])C(=O)NC(=O)[C@H](CO)N[*:2]

Data set [1] has as its target T1, Proprotein convertase subtilisin/kexin type 9 (Homo sapiens, UniProt Q8NBP7). The data set is described as follows: Binding affinity to human PCSK9 assessed as dissociation constant.
In data set [2] the target is T1, Proprotein convertase subtilisin/kexin type 9. The data set is described as follows: Binding affinity to full length C-terminal Avi/His6-tagged human PCSK9 expressed in Expi293 cells assessed as change in entropy by isothermal titration calorimetric analysis.
Data set [3] shares this target. Briefly: Inhibition of tEGF-A[HA] binding to biotinylated human PCSK9 incubated for 2 hrs by ELISA based competitive binding assay.
Data set [4] shares this target. Briefly: Binding affinity to full length C-terminal Avi/His6-tagged human PCSK9 expressed in Expi293 cells assessed as equilibrium dissociation constant by surface plasmon resonance assay.
Data set [5] has the same target. The data set is described as follows: Binding affinity to full length C-terminal Avi/His6-tagged human PCSK9 expressed in Expi293 cells assessed as change in enthalpy by isothermal titration calorimetric analysis.
The target is the same in data set [6]. Briefly: Inhibition of PCSK9 in human HepG2 cells assessed as restoration of PCSK9-induced reduction in fluorescent LDL uptake at 50 nM incubated for 2 hrs by fluorescence plate reader analysis (Rvb= 46.1 +/- 5.6%). Format: cell-based. On the set-up: scale not given: the % may be the effect or the level left.
Data set [7] shares this target. The data set is described as follows: Inhibition of PCSK9 in human HepG2 cells assessed as restoration of surface LDLR level at 50 nM incubated for 2 hrs by Western blot analysis (Rvb= 37.5 +/- 13.9%). The class given is cell-based. More on the design: scale not given: the % may be the effect or the level left.
For data set [8] the target is unchanged. Briefly: Binding affinity to full length C-terminal Avi/His6-tagged human PCSK9 expressed in Expi293 cells assessed as dissociation rate constant (Koff) by surface plasmon resonance assay.
In the next data set the test system is HepG2. Briefly: Cytotoxicity against human HepG2 cells assessed as reduction in cell viability at 10 uM incubated for 48 hrs by MTT assay. The class given is toxicity, cell-based. The following applies: hepg2, 48 h.

Consider `CC(C)C[C@H](NC(=O)[C@H](Cc1ccc(O)cc1)NC(=O)[C@H](CCC(=O)O)NC(=O)[C@H](CCC(=O)O)NC(=O)[C@H](Cc1c[nH]c2ccccc12)NC(=O)[C@H](CO)NC(=O)[C@@H](NC(=O)[C@H](Cc1ccccc1)NC(=O)[C@@H](NC(=O)[C@@H](N)[C@@H](C)O)C(C)C)[C@@H](C)O)C(=O)N[C@@H](CC(=O)O)C(=O)N[C@@H](Cc1c[nH]c2ccccc12)C(=O)N[C@H](C(=O)O)C(C)C`, for which, in data set [1], the Kd came to 660 nM.
With `CC(C)C[C@@H]1NC(=O)[C@H](Cc2ccc(O)cc2)NC(=O)[C@H](CCC(=O)O)NC(=O)[C@H](CCC(=O)O)NC(=O)[C@H](Cc2c[nH]c3ccccc23)NC(=O)[C@H](CO)NC(=O)[C@H]([C@@H](C)O)NC(=O)[C@H](Cc2ccccc2)NC(=O)[C@H](C(C)C)NC(=O)[C@H]([C@@H](C)O)NC(=O)[C@@H](N)CSSC[C@H](N)C(=O)NC(=O)[C@H](CO)NC(=O)[C@H](CC(N)=O)NC(=O)[C@H](CCCNC(=N)N)NC(=O)[C@@H]2CCCN2C(=O)[C@H](Cc2cnc[nH]2)NC(=O)[C@H](CC(C)C)NC(=O)[C@H](CC(N)=O)NC(=O)[C@H](CC(N)=O)NC(=O)[C@H](Cc2c[nH]c3ccccc23)NC(=O)[C@H](CC(=O)O)NC1=O` (H-CTVFTSWEEYLDWNNLHPRN; linker 1-C via X1), the deltaS in data set [2] is -89.5 cal/mol/K. Further, the IC50 in data set [3] came out at 1260 nM. Further, the Kd in [4] turned out to be 974 nM. Besides, the deltaH in [5] is -37.3 kcal/mol. The values for the Activity (in data set [6]; in data set [7]; with HepG2) were 97.1%, 112% and “Non-Toxic”, respectively. Moreover, the K in [8] was found to be 0.02 s⁻¹.

The values above are taken from ChEMBL document CHEMBL5038568, “Bioactive Cyclization Optimizes the Affinity of a Proprotein Convertase Subtilisin/Kexin Type 9 (PCSK9) Peptide Inhibitor” (J Med Chem, 2021).
